Data taken from patent US8735584B2 (Merck Patent GmbH, priority 2008, dated 2014).

biological target: T1, GST-Aurora A (Homo sapiens, UniProt O14965); test: Aurora A IC50, Caliper LC3000 mobility shift assay; format: biochemical; settings: LC3000 method; 15 uM ATP (the KM value); read-out: Aurora Kinase A Activity (IC50)
T1 construct: N-terminal GST fusion with full length Aurora A (1-403 amino acids); purchased Carna Biosciences 05-101
T1 sequence (O14965 1-403): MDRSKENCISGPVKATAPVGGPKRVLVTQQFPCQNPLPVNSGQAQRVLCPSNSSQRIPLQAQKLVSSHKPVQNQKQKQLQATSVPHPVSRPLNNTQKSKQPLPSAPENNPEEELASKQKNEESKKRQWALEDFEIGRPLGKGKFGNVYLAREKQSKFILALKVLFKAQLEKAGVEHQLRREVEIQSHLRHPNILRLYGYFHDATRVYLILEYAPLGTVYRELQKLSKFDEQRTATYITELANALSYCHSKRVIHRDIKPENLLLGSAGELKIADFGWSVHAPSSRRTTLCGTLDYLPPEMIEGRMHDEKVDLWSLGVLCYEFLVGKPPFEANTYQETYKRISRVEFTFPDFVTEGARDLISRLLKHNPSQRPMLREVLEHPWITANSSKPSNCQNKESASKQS
How it was run: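 GST-tagged full-length Aurora A (0.067 ng/ul) with 15 uM ATP (KM) and 1 uM FITC-LRRASLG peptide in 100 mM HEPES pH 7.5, 1 mM MgCl2, 1 mM DTT, Brij-35; 90 min at 25 C, EDTA stop. Off-chip mobility shift read of substrate-to-product conversion; IC50 from sigmoidal dose-response.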

IC50, > 100 nM:
CCN(Cc1ccccc1)c1ccc2c(=O)[nH]c3ncccc3c2c1 [Compound 449, 9-(Benzyl(ethyl)amino)benzo[c][1,8]naphthyridin-6(5H)-one]
O=C(Cc1cc(Nc2ccnc3[nH]c(=O)c4ccccc4c23)n[nH]1)Nc1ccc(F)c(F)c1 [Compound 313, N-(3,4-Difluorophenyl)-2-(3-(6-oxo-5,6-dihydrobenzo[c][1,8]naphthyridin-1-ylamino)-1H-pyrazol-5-yl)acetamide]
CN1CCN(Cc2cccc(C(=O)Nc3ccc(Nc4ccnc5[nH]c(=O)c6ccccc6c45)cc3)c2)CC1 [Compound 354, 3-((4-Methylpiperazin-1-yl)methyl)-N-(4-(6-oxo-5,6-dihydrobenzo[c][1,8]naphthyridin-1-ylamino)phenyl)benzamide]
O=C(Nc1ccc(Nc2ccnc3[nH]c(=O)c4ccccc4c23)cc1)c1ccccc1OCCCN1CCOCC1 [Compound 357, 2-(3-morpholinopropoxy)-N-(4-(6-oxo-5,6-dihydrobenzo[c][1,8]naphthyridin-1-ylamino)phenyl)benzamide]
O=C(CN1CC(Nc2ccnc3[nH]c(=O)c4ccccc4c23)C1)Nc1ccccc1 [Compound 370, 2-(3-(6-Oxo-5,6-dihydrobenzo[c][1,8]naphthyridin-1-ylamino)azetidin-1-yl)-N-phenylacetamide]
Cc1ccccc1CNc1ccc2c(=O)[nH]c3ncccc3c2c1 [Example 46, 9-(2-Methyl-benzylamino)-5H-benzo[c][1,8]naphthyridin-6-one]
CC(C(=O)Nc1ccccc1)N1CCC(Nc2ccnc3[nH]c(=O)c4ccccc4c23)CC1 (stereo not shown) [Compound 287, 2-(4-(6-oxo-5,6-dihydrobenzo[c][1,8]naphthyridin-1-ylamino)piperidin-1-yl)-N-phenylpropanamide]
O=C(CN1CCC(Nc2ccnc3[nH]c(=O)c4ccccc4c23)CC1)NC1CCCCC1 [Compound 485, N-Cyclohexyl-2-(4-(6-oxo-5,6-dihydrobenzo[c][1,8]naphthyridin-1-ylamino)piperidin-1-yl)acetamide]
COc1cccc(CNc2ccc3c(=O)[nH]c4ncccc4c3c2)c1 [Example 42, 9-(3-Methoxy-benzylamino)-5H-benzo[c][1,8]naphthyridin-6-one]
CCOC(=O)CCCNc1ccc2c(=O)[nH]c3ncccc3c2c1 [Compound 460, Ethyl 4-(6-oxo-5,6-dihydrobenzo[c][1,8]naphthyridin-9-ylamino)butanoate]
O=c1[nH]c2ncccc2c2cc(NCc3ccc(F)cc3C(F)(F)F)ccc12 [Compound 464, 9-(4-Fluoro-2-(trifluoromethyl)benzylamino)benzo[c][1,8]naphthyridin-6(5H)-one]
Cc1cc(Nc2ccnc3[nH]c(=O)c4ccccc4c23)n(CC(=O)Nc2ccc(F)c(F)c2)n1 [Compound 309, N-(3,4-difluorophenyl)-2-(3-methyl-5-(6-oxo-5,6-dihydrobenzo[c][1,8]naphthyridin-1-ylamino)-1H-pyrazol-1-yl)acetamide]
O=c1[nH]c2ncccc2c2cc(Nc3ccccc3F)ccc12 [Example 32, 9-(2-Fluoro-phenylamino)-5H-benzo[c][1,8]naphthyridin-6-one]

IC50, 11 to 100 nM:
O=C(Cn1cccn1)Nc1ccc(Nc2ccnc3[nH]c(=O)c4ccccc4c23)cc1 [Compound 503, N-(4-(6-Oxo-5,6-dihydrobenzo[c][1,8]naphthyridin-1-ylamino)phenyl)-2-(1H-pyrazol-1-yl)acetamide]
CN1CCN(C(=O)c2ccc3c(c2)c(=O)[nH]c2nccc(Nc4ccc(NC(=O)c5ccccc5)cc4)c23)CC1 [Compound 269, N-(4-(8-(4-Methylpiperazine-1-carbonyl)-6-oxo-5,6-dihydrobenzo[c][1,8]naphthyridin-1-ylamino)phenyl)benzamide]
O=C(Cn1cc(Nc2ccnc3[nH]c(=O)c4ccc(F)cc4c23)cn1)Nc1ccc(C(F)(F)F)cc1 [Compound 422]
O=C(Nc1ccc(Nc2ccnc3[nH]c(=O)c4ccccc4c23)cc1)c1ccc(OC(F)(F)F)cc1 [Compound 401, N-[4-(6-Oxo-5,6-dihydro-benzo[c][1,8]naphthyridin-1-ylamino)-phenyl]-4-trifluoromethoxy-benzamide]
O=c1[nH]c2nccc(Oc3ccc(NS(=O)(=O)c4cccc(Cl)c4Cl)cc3)c2c2ccccc12 [Example 173, 2,3-Dichloro-N-[4-(6-oxo-5,6-dihydro-benzo[c][1,8]naphthyridin-1-yloxy)-phenyl]-benzenesulfonamide]
O=C(NCCO)c1ccc2c(=O)[nH]c3nccc(Nc4ccc(NC(=O)c5ccccc5)cc4)c3c2c1 [Compound 289, 1-(4-Benzamidophenylamino)-N-(2-hydroxyethyl)-6-oxo-5,6-dihydrobenzo[c][1,8]naphthyridine-9-carboxamide]

IC50, < 11 nM:
COC(=O)c1ccc2c(c1)c(=O)[nH]c1nccc(Nc3ccc(NC(=O)c4ccccc4)cc3)c12 [Compound 267, Methyl 1-(4-benzamidophenylamino)-6-oxo-5,6-dihydrobenzo[c][1,8]naphthyridine-8-carboxylate]
CN(C)CCCNC(=O)c1cccc2c1c(=O)[nH]c1nccc(Nc3ccc(NC(=O)c4ccc(F)cc4C(F)(F)F)cc3)c12 [Compound 441]
O=C(Nc1ccc(Nc2ccnc3[nH]c(=O)c4ccccc4c23)cc1)c1cc(Cl)cc(Cl)c1 [Compound 390, 3,5-Dichloro-N-[4-(6-oxo-5,6-dihydro-benzo[c][1,8]naphthyridin-1-ylamino)-phenyl]-benzamide]
O=C(Nc1ccc(Nc2ccnc3[nH]c(=O)c4ccc(Cl)cc4c23)cc1)c1ccccc1 [Compound 293, N-(4-(9-Chloro-6-oxo-5,6-dihydrobenzo[c][1,8]naphthyridin-1-ylamino)phenyl)benzamide]
COc1ccccc1C(=O)Nc1ccc(Nc2ccnc3[nH]c(=O)c4ccccc4c23)cc1 [Example 148, 2-Methoxy-N-[4-(6-oxo-5,6-dihydro-benzo[c][1,8]naphthyridin-1-ylamino)-phenyl]-benzamide]
O=C(Nc1ccc(Nc2ccnc3[nH]c(=O)c4ccccc4c23)cc1)c1cc(F)cc(C(F)(F)F)c1 [Compound 396, 3-Fluoro-N-[4-(6-oxo-5,6-dihydro-benzo[c][1,8]naphthyridin-1-ylamino)-phenyl]-5-trifluoromethyl-benzamide]
O=C(Nc1ccc(Nc2ccnc3[nH]c(=O)c4ccccc4c23)cc1)c1cccnc1C(F)(F)F [Compound 498, N-(4-(6-Oxo-5,6-dihydrobenzo[c][1,8]naphthyridin-1-ylamino)phenyl)-2-(trifluoromethyl)nicotinamide]
O=C(Nc1ccc(Nc2ccnc3[nH]c(=O)c4ccccc4c23)cc1)c1ccc(Cl)cc1 [Compound 389, 4-Chloro-N-[4-(6-oxo-5,6-dihydro-benzo[c][1,8]naphthyridin-1-ylamino)-phenyl]-benzamide]
O=C(Nc1ccc(Nc2ccnc3[nH]c(=O)c4ccccc4c23)cc1)c1ccc(F)cc1 [Compound 382, 4-Fluoro-N-[4-(6-oxo-5,6-dihydro-benzo[c][1,8]naphthyridin-1-ylamino)-phenyl]-benzamide]
O=C(Nc1ccc(Nc2ccnc3[nH]c(=O)c4ccccc4c23)cc1)c1ccccc1F [Compound 380, 2-Fluoro-N-[4-(6-oxo-5,6-dihydro-benzo[c][1,8]naphthyridin-1-ylamino)-phenyl]-benzamide]
O=C(Nc1ccc(Nc2ccnc3[nH]c(=O)c4cc(F)ccc4c23)cc1)c1ccc(F)cc1C(F)(F)F [Compound 414, 4-Fluoro-N-[4-(8-fluoro-6-oxo-5,6-dihydro-benzo[c][1,8]naphthyridin-1-ylamino)-phenyl]-2-trifluoromethyl-benzamide]
CN(C)CCNC(=O)c1cccc2c1c(=O)[nH]c1nccc(Nc3ccc(NC(=O)c4ccccc4)cc3)c12 [Compound 435, 1-[4-Benzoylamino-phenylamino)-6-oxo-5,6-dihydro-benzo[c][1,8]naphthyridin-7-carboxylic acid 2-dimethylamino-ethyl amide]
O=C(Nc1ccc(Nc2ccnc3[nH]c(=O)c4ccccc4c23)cc1)c1cccc(F)c1F [Compound 432, 2,3-Difluoro-N-[4-(6-oxo-5,6-dihydro-benzo[c][1,8]naphthyridin-1-ylamino)-phenyl]-benzamide]
O=C(Nc1ccc(Nc2ccnc3[nH]c(=O)c4c(C(=O)NCCCN5CCOCC5)cccc4c23)cc1)c1ccccc1 [Compound 437, 1-[4-Benzoylamino-phenylamino)-6-oxo-5,6-dihydro-benzo[c][1,8]naphthyridin-7-carboxylic acid 3-morpholin-4-yl-propyl amide]
O=C(Nc1ccc(Nc2ccnc3[nH]c(=O)c4ccc(F)cc4c23)cc1)c1ccc(F)cc1C(F)(F)F [Compound 413, 4-Fluoro-N-[4-(9-fluoro-6-oxo-5,6-dihydro-benzo[c][1,8]naphthyridin-1-ylamino)-phenyl]-2-trifluoromethyl-benzamide]
